Test results as given in patent US20140094462A1, “SONIC HEDGEHOG MODULATORS” (priority 2009, published 2014).
Read-outs that look alike come from different tables or passages of the source.

Tests used:
[1] = rcm bond, toluene
[2] = rcm bond, 12-membered ring

**Q.** Which ring closure, yield of all isomers ([1]; from C=CCC(C)(C)C(=O)OC[C@H](NC(=O)CCC(=C)[Si](OCC)(OCC)OCC)c1ccccc1) does the source give for `CCO[Si](OCC)(OCC)C1=CCC(C)(C)C(=O)OC[C@@H](c2ccccc2)NC(=O)CC1` here?
**A.** 6%

**Q.** And the ring closure, isolated yield ([2]; from C=CCC(C)(C)C(=O)OC[C@H](NC(=O)CCC(=C)[Si](OCC)(OCC)OCC)c1ccccc1, general RCM procedure (catalyst not printed here), toluene)?
**A.** 6%

**Q.** For `CC(C)(C)OC(=O)C[C@@H]1C/C=C/CCC(=O)O[C@H](c2ccccc2)CNC1=O`, which ring closure, yield of all isomers ([1]; from C=CCCC(=O)O[C@@H](CNC(=O)[C@@H](CC=C)CC(=O)OC(C)(C)C)c1ccccc1, Grubbs 2nd Generation catalyst, 10.0 mM, 65.0 °C, 7.0 h) is on record?
**A.** 73%

**Q.** And the ring closure, isolated yield ([2]; from C=CCCC(=O)O[C@@H](CNC(=O)[C@@H](CC=C)CC(=O)OC(C)(C)C)c1ccccc1, Grubbs II (10 mol%), toluene, 10.0 mM, 65.0 °C, 7.0 h)?
**A.** 73%

**Q.** Which ring closure, yield of all isomers ([1]; from C=CCCCN[C@@H](COC(=O)[C@@H](C)CC=C)c1ccccc1, 3 steps) does the source give for `C[C@H]1C/C=C/CCCN[C@H](c2ccccc2)COC1=O` here?
**A.** 41%

**Q.** What about the ring closure, isolated yield ([2]; from C=CCCCN[C@@H](COC(=O)C(C)CC=C)c1ccccc1, general RCM procedure (catalyst not printed here), toluene, 3 steps) of the same molecule?
**A.** 41%

**Q.** For `CC(C)(C)OC(=O)N[C@@H]1C/C=C/CCC(=O)N[C@H](c2ccc(F)cc2)COC1=O`, which ring closure, isolated yield ([2]; from C=CCCC(=O)N[C@@H](COC(=O)[C@@H](CC=C)NC(=O)OC(C)(C)C)c1ccc(F)cc1, Grubbs II (10 mol%), DCM, 9.9 mM) is on record?
**A.** 85%
